Starred links: 1 amine or outer side, 2 acyl side, 3 side chain; linkers in the order of their positions; H or OH if unused. Non-standard residues stand in square brackets, D forms with d. Residues, ends and D or L forms follow the SMILES beside them. *: point of attachment. X13 = CCCCCCCCCCCCCCCCSC1CC(=O)N(CCOCCOCCOCCOCCOCCOCCOCCOCCC(=O)*)C1=O; X11 = O=C(c1nnc([C@H](Cc2ccccc2)N[*:1])[nH]1)[*:2]; X14 = O=C(c1cnc([C@H](Cc2ccccc2)N[*:1])[nH]1)[*:2]; cPrCO(1-aminomethyl) = O=C(C1(CN[*:1])CC1)[*:2]; dPhe(2,4-Cl2) = N[C@H](Cc1ccc(Cl)cc1Cl)C(=O)O; Phe(4-Cl) = N[C@@H](Cc1ccc(Cl)cc1)C(=O)O; Pro(4,4-F2) = O=C(O)[C@@H]1CC(F)(F)CN1; dAla(2-furyl) = N[C@H](Cc1ccco1)C(=O)O; dPhe(4-F) = N[C@H](Cc1ccc(F)cc1)C(=O)O; Arg(Me) = CNC(=N)NCCC[C@H](N)C(=O)O; Hyp = O=C(O)[C@@H]1C[C@@H](O)CN1; Gly(cPr) = N[C@H](C(=O)O)C1CC1; NMeL = CN[C@@H](CC(C)C)C(=O)O; Ac6c = NC1(C(=O)O)CCCCC1; azaGly = NNC(=O)O; βAla = NCCC(=O)O
Biological target: T1, human kiss1 receptor (GPR54) (Homo sapiens, UniProt Q969F8)
T1 construct: host or cells: NFAT-bla CHO-K1 cells (Chinese hamster ovary), purchased recombinant cell line
Test: Kiss1 receptor (GPR54) binding activity of agonists, FRET detection in NFAT-bla CHO-K1 cells
Type: cell-based
Details: GPR54; measured according to the method of effect Embodiment 1; preliminary data; read-out: Preliminary measurement data (GPR54) EC50

T1 sequence (Q969F8 whole entry): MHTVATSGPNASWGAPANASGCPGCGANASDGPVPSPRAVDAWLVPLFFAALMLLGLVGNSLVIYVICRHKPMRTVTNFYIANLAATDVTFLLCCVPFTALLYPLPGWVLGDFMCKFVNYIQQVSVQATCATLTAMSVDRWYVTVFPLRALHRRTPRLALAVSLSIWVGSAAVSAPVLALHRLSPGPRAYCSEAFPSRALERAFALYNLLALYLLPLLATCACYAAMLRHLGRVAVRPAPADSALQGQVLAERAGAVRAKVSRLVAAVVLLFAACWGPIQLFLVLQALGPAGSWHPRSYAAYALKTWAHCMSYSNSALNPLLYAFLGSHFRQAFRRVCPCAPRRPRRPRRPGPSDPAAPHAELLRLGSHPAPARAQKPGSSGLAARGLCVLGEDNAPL

Compound	EC50
CNC(=N)NCCC[C@H](NC(=O)[C@H](CC(C)C)N(C)C(=O)CCNC(=O)[C@H](Cc1ccccc1)NC(=O)[C@@H](NC(=O)[C@H](CC(N)=O)NC(=O)[C@@H]1CC(F)(F)CN1C(=O)[C@@H](Cc1ccco1)NC(C)=O)[C@@H](C)O)C(=O)N[C@@H](Cc1c[nH]c2ccccc12)C(N)=O [YA-186, Ac-[3-(2-Furyl)-D-Ala]-(DiFluorPro)-Asn-Thr-Phe-BetaAla-NMeLeu-Arg(Me)-Trp-NH2] (Ac-[dAla(2-furyl)][Pro(4,4-F2)]NTF[βAla][NMeL][Arg(Me)]W-NH2)	3.89 nM
CNC(=N)NCCC[C@H](NC(=O)[C@H](CC(C)C)NC(=O)NNC(=O)[C@H](Cc1ccccc1)NC(=O)[C@@H](NC(=O)[C@H](CC(N)=O)NC(=O)[C@@H]1C[C@@H](O)CN1C(=O)[C@H](Cc1ccc(Cl)cc1)NC(C)=O)[C@@H](C)O)C(=O)N[C@@H](Cc1c[nH]c2ccccc12)C(N)=O [YA-72, Ac-Phe(4-Cl)-Hyp-Asn-Thr-Phe-azaGly-Leu-Arg(Me)-Trp-NH2] (Ac-[Phe(4-Cl)][Hyp]NTF[azaGly]L[Arg(Me)]W-NH2)	5.55 nM
CNC(=N)NCCC[C@H](NC(=O)[C@H](CC(C)C)NC(=O)NNC(=O)[C@H](Cc1ccccc1)NC(=O)[C@@H](NC(=O)[C@H](CC(N)=O)NC(=O)[C@@H]1C[C@@H](O)CN1C(=O)[C@@H](Cc1ccco1)NC(C)=O)[C@@H](C)O)C(=O)N[C@@H](Cc1c[nH]c2ccccc12)C(N)=O [YA-43, Ac-(D-2Fua)-Hyp-Asn-Thr-Phe-azaGly-Leu-Arg(Me)-Trp-NH2] (Ac-[dAla(2-furyl)][Hyp]NTF[azaGly]L[Arg(Me)]W-NH2)	0.095 nM
CNC(=N)NCCC[C@H](NC(=O)[C@H](CC(C)C)NC(=O)NNC(=O)[C@H](Cc1ccccc1)NC(=O)[C@@H](NC(=O)[C@H](CC(N)=O)NC(=O)C1(CNC(=O)[C@@H](Cc2ccc(O)cc2)NC(C)=O)CC1)[C@@H](C)O)C(=O)N[C@@H](Cc1c[nH]c2ccccc12)C(N)=O [YA-145, Ac-D-Tyr-ACPA-Asn-Thr-Phe-azaGly-Leu-Arg(Me)-Trp-NH2] (Ac-[dY][cPrCO(1-aminomethyl)]NTF[azaGly]L[Arg(Me)]W-NH2)	0.034 nM
CNC(=N)NCCC[C@H](NC(=O)[C@H](CC(C)C)N(C)C(=O)CCNC(=O)[C@H](Cc1ccccc1)NC(=O)[C@@H](NC(=O)[C@H](CC(N)=O)NC(=O)[C@@H]1C[C@@H](O)CN1C(=O)[C@@H](Cc1ccc(O)cc1)NC(C)=O)[C@@H](C)O)C(=O)N[C@@H](Cc1c[nH]c2ccccc12)C(N)=O [YA-82, Ac-(D-Tyr)-Hyp-Asn-Thr-Phe-BetaAla-(NMe-Leu)-Arg(Me)-Trp-NH2] (Ac-[dY][Hyp]NTF[βAla][NMeL][Arg(Me)]W-NH2)	2.79 nM
CNC(=N)NCCC[C@H](NC(=O)[C@H](CC(C)C)N(C)C(=O)CCNC(=O)[C@H](Cc1ccccc1)NC(=O)[C@@H](NC(=O)[C@H](CC(N)=O)NC(=O)[C@@H]1C[C@@H](O)CN1C(=O)[C@@H](Cc1ccco1)NC(C)=O)[C@@H](C)O)C(=O)N[C@@H](Cc1c[nH]c2ccccc12)C(N)=O [YA-164, Ac-[3-(2-furyl)-D-Ala]-Hyp-Asn-Thr-Phe-BetaAla-(NMe-Leu)-Arg(Me)-Trp-NH2] (Ac-[dAla(2-furyl)][Hyp]NTF[βAla][NMeL][Arg(Me)]W-NH2)	1.75 nM

Further lines, results first:

EC50	Compound
1.4 nM	CNC(=N)NCCC[C@H](NC(=O)[C@H](CC(C)C)NC(=O)c1nnc([C@H](Cc2ccccc2)NC(=O)[C@@H](NC(=O)[C@H](CC(N)=O)NC(=O)[C@@H]2C[C@@H](O)CN2C(=O)[C@@H](Cc2ccc(O)cc2)NC(C)=O)[C@@H](C)O)[nH]1)C(=O)N[C@@H](Cc1c[nH]c2ccccc12)C(N)=O [YA-209, Ac-(D-Tyr)-Hyp-Asn-Thr-{(S)-5-(1-amino-2-phenylethyl)-4H-1,2,4-triazole-3-carboxylic acid}-Leu-Arg(Me)-Trp-NH2] (Ac-[dY][Hyp]NT[X11]L[Arg(Me)]W-NH2)
1.09 nM	CNC(=N)NCCC[C@H](NC(=O)[C@H](CC(C)C)NC(=O)c1cnc([C@H](Cc2ccccc2)NC(=O)[C@@H](NC(=O)[C@H](CC(N)=O)NC(=O)[C@@H]2C[C@@H](O)CN2C(=O)[C@@H](Cc2ccc(O)cc2)NC(C)=O)[C@@H](C)O)[nH]1)C(=O)N[C@@H](Cc1c[nH]c2ccccc12)C(N)=O [YA-208, Ac-(D-Tyr)-Hyp-Asn-Thr-{(S)-2-(1-amino-2-phenylethyl)-1H-imidazole-5-carboxylic acid}-Leu-Arg(Me)-Trp-NH2] (Ac-[dY][Hyp]NT[X14]L[Arg(Me)]W-NH2)
0.48 nM	CNC(=N)NCCC[C@H](NC(=O)[C@H](CC(C)C)NC(=O)C1(NC(=O)[C@H](Cc2ccccc2)NC(=O)[C@@H](NC(=O)[C@H](CC(N)=O)NC(=O)[C@@H]2C[C@@H](O)CN2C(=O)[C@@H](Cc2ccc(Cl)cc2Cl)NC(C)=O)[C@@H](C)O)CCCCC1)C(=O)N[C@@H](Cc1c[nH]c2ccccc12)C(N)=O [YA-196, Ac-[D-Phe(2,4-DiCl)]-Hyp-Asn-Thr-Phe-A6c-Leu-Arg (Me)-Trp-NH2] (Ac-[dPhe(2,4-Cl2)][Hyp]NTF[Ac6c]L[Arg(Me)]W-NH2)
0.68 nM	CNC(=N)NCCC[C@H](NC(=O)[C@H](CC(C)C)NC(=O)C1(NC(=O)[C@H](Cc2ccccc2)NC(=O)[C@@H](NC(=O)[C@H](CC(N)=O)NC(=O)[C@@H]2C[C@@H](O)CN2C(=O)[C@@H](Cc2ccc(F)cc2)NC(C)=O)[C@@H](C)O)CCCCC1)C(=O)N[C@@H](Cc1c[nH]c2ccccc12)C(N)=O [YA-195, Ac-[D-Phe(4-F)]-Hyp-Asn-Thr-Phe-A6c-Leu-Arg(Me)-Trp-NH2] (Ac-[dPhe(4-F)][Hyp]NTF[Ac6c]L[Arg(Me)]W-NH2)
0.051 nM	CCCCCCCCCCCCCCCCSC1CC(=O)N(CCOCCOCCOCCOCCOCCOCCOCCOCCC(=O)NCC(=O)NCC(=O)N[C@H](Cc2ccc(O)cc2)C(=O)N2C[C@H](O)C[C@H]2C(=O)N[C@@H](CC(N)=O)C(=O)N[C@H](C(=O)N[C@@H](Cc2ccccc2)C(=O)NNC(=O)N[C@@H](CC(C)C)C(=O)N[C@@H](CCCNC(=N)NC)C(=O)N[C@@H](Cc2c[nH]c3ccccc23)C(N)=O)[C@@H](C)O)C1=O (stereo partly drawn) [YA-368, M10 [Hexadecyl-S-maleimide-PEG8, G43, G44, D-Tyr45, Hyp46, des47, T49, AzaGly51, R(Me)53, W54]] (X13-GG[dY][Hyp]NTF[azaGly]L[Arg(Me)]W-NH2)

Same assay, conditions: human kiss1 receptor (GPR54), NFAT-bla CHO-K1 cells, FRET; preliminary data; method of effect Embodiment 1; read-out: Preliminary measurement data (GPR54) EC50

EC50	Compound
1.19 nM	CNC(=N)NCCC[C@H](NC(=O)[C@H](CC(C)C)NC(=O)[C@@H](NC(=O)[C@H](Cc1ccccc1)NC(=O)[C@@H](NC(=O)[C@H](CC(N)=O)NC(=O)[C@@H]1C[C@@H](O)CN1C(=O)[C@@H](Cc1ccc(O)cc1)NC(C)=O)[C@@H](C)O)C1CC1)C(=O)N[C@@H](Cc1c[nH]c2ccccc12)C(N)=O [YA-396, Ac-(D-Tyr)-Hyp-Asn-Thr-Phe-Cpg-Leu-Leu-Arg(Me)-Trp-NH2] (Ac-[dY][Hyp]NTF[Gly(cPr)]L[Arg(Me)]W-NH2)
7.95 nM	CNC(=N)NCCC[C@H](NC(=O)[C@H](CC(C)C)NC(=O)C1(NC(=O)[C@H](Cc2ccccc2)NC(=O)[C@@H](NC(=O)[C@H](CC(N)=O)NC(=O)C2(NC(=O)[C@@H](Cc3ccco3)NC(C)=O)CCCCC2)[C@@H](C)O)CCCCC1)C(=O)N[C@@H](Cc1c[nH]c2ccccc12)C(N)=O [YA-272, Ac-3-(2-furyl)-D-alanine-A6c-Asn-Thr-Phe-A6c-Leu-Arg(Me)-Trp-NH2] (Ac-[dAla(2-furyl)][Ac6c]NTF[Ac6c]L[Arg(Me)]W-NH2)
